{"source": "patent JP2017105729A", "about": "“ミトコンドリア病の治療剤” (Tohoku University NUC, priority 2015, dated 2017)", "key": {"[1]": {"system": "mitochondrial disease [ミトコンドリア病]", "settings": "reported in Patent Literature 2; cited from earlier work"}, "[2]": {"system": "erythropoietin [エリスロポエチン]", "settings": "reported in Patent Literature 2; cited from earlier work"}, "[3]": {"system": "Leber disease patient-derived fibroblasts [Leber病患者由来線維芽細胞]", "assay": "Suppression of oxidative-stress (BSO) induced cell death of Leber disease patient fibroblasts: cell viability (MTT assay, Cell Counting Kit-8)", "assay_type": "cell-based", "settings": "for minimal effective concentration: Fibroblast, BSO 100 μM 24 h, then compound (0.1, 0.3, 1, 3, 10 μM) 48 h, n=4, Fig. 1B, read-out: concentration at which the decrease in cell viability is suppressed"}, "[4]": {"system": "mitochondrial encephalomyopathy patients [ミトコンドリア脳筋症患者]", "settings": "cited from earlier work"}, "[5]": {"system": "erythropoietin, human liver cancer cell line Hep3B [エリスロポエチン産生ヒト肝臓癌細胞株Hep3B]", "assay": "Erythropoietin production in Hep3B cells in the presence of TNFα (ELISA)", "assay_type": "cell-based", "settings": "compound 3 μM with TNFα 220 μg/mL, 24 h, 20% O2; relative to DMSO; Fig. 2"}, "[6]": {"system": "Leber disease patient-derived fibroblasts [Leber病患者由来線維芽細胞]", "assay": "Suppression of cytotoxicity in BSO-treated Leber disease patient fibroblasts: released LDH activity (Cytotoxicity LDH Assay Kit-WST)", "assay_type": "cell-based", "settings": "BSO 100 μM 24 h, then compound (0.1, 0.3, 1, 3, 10 μM) 48 h, n=4; LDH release; Fig. 1C"}}, "data": [{"smiles": "O=C(CC(C(=O)O)c1c[nH]c2ccccc12)c1ccc(F)cc1F", "note": "(centres unmarked) [4−(2,4−ジフルオロフェニル)−2−(1H−インドール−3−イル)−4−オキソ−ブタン酸]", "values": [{"measurement": "therapeutic effect on mitochondrial disease", "setting": "[1]", "result": "ミトコンドリア病の治療効果"}, {"measurement": "effect of enhancing erythropoietin expression / promoting erythropoietin production", "setting": "[2]", "result": "エリスロポエチン発現増強効果"}]}, {"smiles": "CCCCS(=N)(=O)CC[C@H](N)C(=O)O", "note": "(stereo partly drawn) [BSO, L-Buthionine sulphoximine]", "values": [{"measurement": "cell viability", "setting": "[3]; BSO 100 μM (glutathione synthesis inhibitor) alone, Fig. 1A", "result": "細胞生存率が低下する"}]}, {"smiles": "CC1=NN(c2ccccc2)C(=O)C1", "note": "[エダラボン, 3−メチル−1−フェニル−2−ピラゾリン−5−オン]", "values": [{"measurement": "effect of stopping enlargement of infarct", "setting": "[4]", "result": "梗塞の拡大を停止する効果"}, {"measurement": "effect of suppressing edema", "setting": "[4]", "result": "浮腫を抑制する効果"}]}, {"smiles": "O=C(CC(C(=O)O)c1c[nH]c2cc(F)ccc12)c1ccc(F)cc1F", "note": "(centres unmarked) [本件化合物#1, 4−(2,4−ジフルオロフェニル)−2−(6−フルオロ−1H−インドール−3−イル)−4−オキソブタン酸]", "values": [{"measurement": "erythropoietin expression level", "setting": "[5]", "result": "増加する"}]}, {"smiles": "O=C(CC(C(=O)O)c1c[nH]c2cccc(Cl)c12)c1ccc(F)cc1F", "note": "(centres unmarked) [本件化合物#5, 2−(4−クロロ−1H−インドール−3−イル)−4−(2,4−ジフルオロフェニル)−4−オキソブタン酸]", "values": [{"measurement": "erythropoietin expression level", "setting": "[5]", "result": "増加する"}]}, {"smiles": "Cc1ccc2[nH]cc(C(CC(=O)c3ccc(F)cc3F)C(=O)O)c2c1", "note": "(centres unmarked) [本件化合物#6, 4−(2,4−ジフルオロフェニル)−2−(5−メチル−1H−インドール−3−イル)−4−オキソブタン酸]", "values": [{"measurement": "minimal effective concentration", "setting": "[3]", "result": "≥ 1", "unit": "µM"}, {"measurement": "concentration at which the cytotoxicity level is lowered", "setting": "[6]", "result": "≥ 1", "unit": "µM"}, {"measurement": "erythropoietin expression level", "setting": "[5]", "result": "増加する"}]}, {"smiles": "O=C(CC(C(=O)O)c1c[nH]c2ccccc12)c1ccc(F)cc1", "note": "(centres unmarked) [比較例化合物#4, 4−(4−フルオロフェニル)−2−(1H−インドール−3−イル)−4−オキソ−ブタン酸]", "values": [{"measurement": "minimal effective concentration", "setting": "[3]", "result": "≥ 10", "unit": "µM"}, {"measurement": "concentration at which the cytotoxicity level is lowered", "setting": "[6]", "result": "≥ 10", "unit": "µM"}, {"measurement": "therapeutic effect on mitochondrial disease", "setting": "[1]", "result": "ミトコンドリア病の治療効果"}, {"measurement": "effect of enhancing erythropoietin expression / promoting erythropoietin production", "setting": "[2]", "result": "エリスロポエチン産生の促進効果"}]}]}
